Assay results taken from patent US9359409B2, “Antimicrobial peptides, compositions comprising the same and uses thereof” (priority 2012, dated 2016).
Where two headings read alike, the source gives them in different places. Ends that are not written are not given here.

Key:
[1] = test system: Escherichia coli
Protocol: (§1) The 5 designed and synthesized peptides of the invention, plus omiganan (peptide of the state of the art) were evaluated for their antimicrobial capacity in microdilution assays for determining the minimum inhibitory concentration (MIC). A first panel of 8 representative strains was analyzed in these assays, encompassing Gram positive and Gram negative bacteria. […] The lowest MIC values indicate a higher antimicrobial potency.
(§2) Subsequently, an analysis of a panel of clinical isolates including strains with different resistance mechanisms against conventional antibiotics was carried out, all of which are of clinical relevance. […] In Table 3 the results for a panel of Gram negative bacteria are shown, and in Table 4 for a panel of […] bacteria. In these tables the detected gene/s responsible for the resistance against antibiotics for each strain, are included.
(§3) Antimicrobial activity was analyzed by means of the determination of the MIC (minimum inhibitory concentration) by the microdilution technique. The technique was carried out in the standard fashion according to (CLSI M07-A9 Vol. 32 No 2. January 2012). The peptide concentration range used was from 0.5 μg/mL to 512 μg/mL in two-fold serial dilutions. The used medium was MH Difco broth supplemented with cations, at a final concentration of Ca^++20-25 mg/L and Mg^++10-12.5 mg/L. The working inoculum used corresponds to a 1/100 dilution of a bacterial suspension equivalent to 0.5 in the Mc Farland scale.

[2] = test system: Klebsiella pneumoniae
Protocol: as §1, §2, §3

[3] = test system: Staphylococcus cohnii
Protocol: as §1, §2, §3

[4] = test system: Staphylococcus warneri
Protocol: as §1, §2, §3

[5] = test system: Pseudomonas aeruginosa; test: MIC by broth microdilution; format: cell-based
Protocol: as §1, §2, §3

[6] = test system: E. coli; format: cell-based
Protocol: (§4) In vitro sensitivity assay of aerobically growing bacteria, using the disc diffusion method was performed according to the standards in the M2 document of the CLSI (Clinical and Laboratory Standards Institute: Performance Standards for Antimicrobial Disk Susceptibility Tests.) using the non-amidated peptides
(§5) In brief, intermediate solutions (10×) of the antimicrobial non-amidated peptides were prepared by serial dilutions 1:2, 1:4 and 1:8 by two-fold dilutions. Then, one part of the solution of the antimicrobial peptide 10× was added to nine parts of melted bacteriological agar. The antibiotic solution was added for each dilution, in the melted agar and cooled to 45-50° C. in a water bath. Then, the agar-antibiotic mixture was placed in a Petri dish until a 3-4 mm depth was reached. The inoculum is prepared with a turbidity of 0.5 in the McFarland scale (approximately 1-2 10^8 CFU/ml). The final inoculum required for the agar dilution test is 10^4 colony forming units (CFU) per “spot” having 5-8 mm in diameter. The inoculated plates must be incubated upside down at 35° C. for a period of 16-20 hs. MIC was recorded as the value of the lower dilution completely inhibiting bacterial development, without considering the development of a single colony or a slight film caused by the inoculum deposit. The final point in these cases will correspond to the concentration at which there is more than 80% reduction in growth as compared with the control.

[7] = test system: K. pneumoniae; format: cell-based
Protocol: as §4, §5

[8] = test system: P. aeruginosa; format: cell-based
Protocol: as §4, §5

[9] = test system: S. aureus; format: cell-based
Protocol: as §4, §5

[10] = test system: S. cohnii; format: cell-based
Protocol: as §4, §5

[11] = test system: S. warnerii; format: cell-based
Protocol: as §4, §5

[12] = test system: Staphylococcus aureus; test: MIC by broth microdilution; format: cell-based
Protocol: as §1, §2, §3

[13] = test system: A. baumanii
Protocol: as §2, §3

[14] = test system: E. faecalis
Protocol: as §2, §3

[15] = test system: E. gallinarum
Protocol: as §2, §3

[16] = test system: S. haemolyticus
Protocol: as §2, §3

[17] = test system: S. saprophyticus
Protocol: as §2, §3

[18] = test system: human erythrocytes; test: Erythrocyte hemolysis assay (cytotoxicity); format: cell-based
Protocol: Subsequently, the capacity of the peptides of the invention for lysing human erythrocytes was evaluated, as a measure of their cytotoxicity (Table 2). The assays were carried out according to the Examples and are expressed as a percentage of total lysis obtained with either water or the surfactant Tween 20. In this assays, the lower hemolysis percentage, the lower expected cytotoxic activity.
Evaluation of cytotoxic activity was performed by means of an erythrocyte hemolysis assay (according to Pure Appl. Chem., Vol. 79, No. 4, pp. 717-728, 2007). In brief, from a volume of heparinized human whole blood, 3 times that volume of PBS is added and centrifuged 10 minutes at 1500 rpm, repeating the washing two more times. 10% blood solutions in PBS were prepared with that pellet. Subsequently, each group was added the corresponding peptide at the indicated concentration and incubated at 37° C. for 30 minutes. […]

FGKEKKAWWRRRKWLK-NH2 [peptide 3, FGKEKKAWWRRRKWLK]
MIC [1]: 64 mg/L | MIC [2]: 128 mg/L | MIC [3]: 4 mg/L | MIC [4]: 8 mg/L | MIC [5]: 128 mg/L | MIC in agar dilution [6]: >128 mg/L | MIC in agar dilution [7]: >128 mg/L | MIC in agar dilution [8]: >128 mg/L | MIC in agar dilution [9]: >128 mg/L | MIC in agar dilution [10]: 32 mg/L | MIC in agar dilution [11]: 32 mg/L

WPKWWKWKRRWGRKKAKKRRG-NH2 [peptide 1]
MIC ([1]; E. coli ABC11, resistance gene ctx-m-2): 128 mg/L | MIC ([1]; E. coli Cos15, resistance gene per + tem): 128 mg/L | MIC ([1]; E. coli LCA1, resistance gene ctx-m-2 + tem-1): 128 mg/L | MIC ([1]; E. coli M5306, resistance gene ctx-m-2 + tem-1 + per-2): 128 mg/L | MIC ([1]; E. coli M7859, resistance gene cit): 128 mg/L | MIC ([1]; E. coli M9209, resistance gene kpc): 128 mg/L | MIC ([1]; E. coli NEU23, resistance gene oxa-GIII + tem): 128 mg/L | MIC ([5]; P. aeruginosa M5109, resistance gene vim): 128 mg/L | MIC ([5]; P. aeruginosa M5470, resistance gene ND): 128 mg/L | MIC ([5]; P. aeruginosa M7525, resistance gene spm): 64 mg/L | MIC ([5]; P. aeruginosa M7712, resistance gene spm): 64 mg/L | MIC ([5]; P. aeruginosa M7723, resistance gene kpc): 64 mg/L | MIC ([5]; P. aeruginosa M7728, resistance gene imp): 128 mg/L | MIC ([5]; P. aeruginosa M7907, resistance gene per): 128 mg/L | MIC ([12]; S. aureus 28, resistance gene ermA): 32 mg/L | MIC ([12]; S. aureus 33, resistance gene msrA): 32 mg/L | MIC ([12]; S. aureus 204, resistance gene ermA): 64 mg/L | MIC ([12]; S. aureus 239, resistance gene ermC): 32 mg/L | MIC ([12]; S. aureus ATCC29213, WT): 32 mg/L | MIC ([12]; S. aureus M2832, resistance gene mecA): 32 mg/L | MIC ([12]; S. aureus M4046, resistance gene mecA): 32 mg/L | MIC ([12]; S. aureus M6276, resistance gene ermA + lnuA): 16 mg/L | MIC ([12]; S. aureus M6784, resistance gene mecA): 32 mg/L | MIC ([13]; A. baumanii FAV-1, resistance gene per + oxa-51 + oxa-58): 64 mg/L | MIC ([13]; A. baumanii M5179, resistance gene oxa-51): 64 mg/L | MIC ([13]; A. baumanii M5277, resistance gene per): 64 mg/L | MIC ([13]; A. baumanii M5282, resistance gene oxa-51): 64 mg/L | MIC ([13]; A. baumanii M7489, resistance gene oxa-51 + tem): 64 mg/L | MIC ([13]; A. baumanii M7978, resistance gene imp): 64 mg/L | MIC ([13]; A. baumanii M13523, resistance gene oxa-51): 64 mg/L | MIC [14]: 64 mg/L | MIC ([14]; E. faecalis ATCC 51299, resistance gene vanB): 256 mg/L | MIC ([14]; E. faecalis M4449, resistance gene vanA): 128 mg/L | MIC ([14]; E. faecalis M4899, resistance gene vanB): 256 mg/L | MIC ([14]; E. faecalis M4992, resistance gene vanA): 128 mg/L | MIC ([14]; E. faecalis M6383, resistance gene vanA): 128 mg/L | MIC ([14]; E. faecalis M6534, resistance gene vanB): 128 mg/L | MIC ([15]; E. gallinarum M2685, resistance gene vanC1 + vanA): 16 mg/L | MIC ([15]; E. gallinarum M2723, resistance gene vanC1 + vanA): 32 mg/L | MIC [16]: 16 mg/L | MIC [17]: 16 mg/L | MIC in agar dilution ([6]; non-amidated peptides, E. coli ATCC 25922, WT): >128 mg/L | MIC in agar dilution ([7]; non-amidated peptides, K. pneumoniae M13540, KPC): >128 mg/L | MIC in agar dilution [8]: >128 mg/L | MIC in agar dilution ([8]; non-amidated peptides, P. aeruginosa M13513, KPC): >128 mg/L | MIC in agar dilution ([9]; non-amidated peptides, S. aureus ATCC29213, MSSA): >128 mg/L | MIC in agar dilution ([9]; non-amidated peptides, S. aureus M6794, MRSA): >128 mg/L | MIC in agar dilution [10]: 16 mg/L | MIC in agar dilution [11]: 16 mg/L | therapeutic index (antimicrobial potency over the cytotoxicity percentage) ([18]; in words): highest therapeutic index values | Hemolysis % (1% Tween20) ([18]; peptide 128 ug/ml, percentage of total lysis obtained with 1% Tween20): 4% | Hemolysis % (water) ([18]; peptide 128 ug/ml, percentage of total lysis obtained with water): 3.4% | OD 540 nm ([18]; peptide 128 ug/ml, supernatant of human erythrocytes, 37° C., 30 minutes): 0.067
